From PubChem BioAssay (NCI)
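Method: 48-hour compound exposure of cells in 96-well plates, five concentrations, linear interpolation of endpoints. Definition used: TGI = concentration required for complete inhibition of growth.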

What was measured:
Test in all cases: NCI anticancer screen, dose series, 48 h
786-0 renal = tested on: 786-0 renal
A498 renal = tested on: A498 renal
A549 NSCLC = tested on: A549 NSCLC
ACHN renal = tested on: ACHN renal
COLO 205 colon = tested on: COLO 205 colon
DLD-1 colon = tested on: DLD-1 colon
DMS 114 small cell lung = tested on: DMS 114 small cell lung
EKVX NSCLC = tested on: EKVX NSCLC
HCC-2998 colon = tested on: HCC-2998 colon
HCT-116 colon = tested on: HCT-116 colon
HCT-15 colon = tested on: HCT-15 colon
HL-60(TB) leukemia = tested on: HL-60(TB) leukemia
HOP-18 NSCLC = tested on: HOP-18 NSCLC
HOP-62 NSCLC = tested on: HOP-62 NSCLC
HOP-92 NSCLC = tested on: HOP-92 NSCLC
HT29 colon = tested on: HT29 colon
IGROV1 ovarian = tested on: IGROV1 ovarian
K-562 leukemia = tested on: K-562 leukemia
KM12 colon = tested on: KM12 colon
KM20L2 colon = tested on: KM20L2 colon
LOX IMVI melanoma = tested on: LOX IMVI melanoma
LXFL 529 NSCLC = tested on: LXFL 529 NSCLC
M19-MEL melanoma = tested on: M19-MEL melanoma
MALME-3M melanoma = tested on: MALME-3M melanoma
MOLT-4 leukemia = tested on: MOLT-4 leukemia
NCI-H226 lung = tested on: NCI-H226 lung
NCI-H23 lung = tested on: NCI-H23 lung
NCI-H460 lung = tested on: NCI-H460 lung
NCI-H522 lung = tested on: NCI-H522 lung
OVCAR-3 ovarian = tested on: OVCAR-3 ovarian
OVCAR-4 ovarian = tested on: OVCAR-4 ovarian
OVCAR-5 ovarian = tested on: OVCAR-5 ovarian
OVCAR-8 ovarian = tested on: OVCAR-8 ovarian
RPMI-8226 leukemia = tested on: RPMI-8226 leukemia
RXF 393 renal = tested on: RXF 393 renal
SF-268 CNS = tested on: SF-268 CNS
SF-295 CNS = tested on: SF-295 CNS
SF-539 CNS = tested on: SF-539 CNS
SK-MEL-2 melanoma = tested on: SK-MEL-2 melanoma
SN12C renal = tested on: SN12C renal
SNB-19 CNS = tested on: SNB-19 CNS
SNB-75 CNS = tested on: SNB-75 CNS
SR leukemia = tested on: SR leukemia
SW-620 colon = tested on: SW-620 colon
TK-10 renal = tested on: TK-10 renal
U251 CNS = tested on: U251 CNS
UACC-257 melanoma = tested on: UACC-257 melanoma
UO-31 renal = tested on: UO-31 renal
XF 498 CNS = tested on: XF 498 CNS

Measured: TGI

Cc1ccc(-n2c(=S)[nH]c3ccc(Br)cc3c2=O)cc1
> 100 µM: all assays above
